The source of these data is patent US20240189408A1, “COMPOSITIONS AND METHODS FOR REDUCING METHANE EMISSIONS IN RUMINANT POPULATIONS” (Arkea Bio Corp., priority 2022, published 2024).

Read-outs that look alike come from different tables or passages of the source.

One data set relates to Methanomicrobium mobile. The settings on record: cited from earlier work.
Another data set concerns Methanosarcina mazei. The note with it: cited from earlier work.
The subject of a further data set is Mbb. Ruminantium. The note with it: cited from earlier work.
Data set [1] concerns methane production in ruminants. The note with it: cited from earlier work.
A short description of data set [2]: 3-NOP to adsorbent ratio study. The note with it: 24 hr, HPLC. In kind it is physicochemical. As to the method: Optimal loading of 3-NOP onto adsorbents was determined by varying ratios of 3-NOP to adsorbent. 3-NOP and adsorbent were speed mixed at 2000 rpm for 1 min at the following ratios by weight: 1:1.5, 1:2, 1:2.5. The adsorbed 3-NOP powder mixture was then placed in distilled water at 1% 3-NOP loading. The solution was allowed to equilibrate for 24 hr and then an aliquot was taken for HPLC to determine the reduction in 3-NOP concentration.

Data set [3] has as its system rumen methanogens. The settings on record: sheep, cited from earlier work.
A short description of data set [4]: 3-NOP volatility, mass loss open to air. The format is physicochemical. The settings on record: 500 mg in 5 dram vial open to air, ~18-24C, 15-30% RH, 6 days. As to the method:
3-NOP Volatility:500 mg of 3-NOP in a 5 dram vial was left open to air at ˜18-24C at 15-30% RH over the course of 6 days. Average mass loss is ˜0.25% per day.

Data set [5] is described as follows: 3-NOP pH and temperature stability by HPLC. The format is physicochemical. The note with it: 1-month, 4-30C, pH 4-10. From the text:
3-NOP pH and Temperature Stability: Confirmed via HPLC over a 1-month time period at temperature between 4-30C and pH 4-10.

For data set [6], the system named is rumen methanogens. The note with it: cited from earlier work.
Data set [7] in a line: Adsorbent study: binding affinity and adsorptive capacity for 3-NOP, HPLC at 230 nm.
Experimental: The solution was then placed in an ultrasonic bath for ˜4 hr and then allowed to equilibrate over 24h.
The test system of data set [8] is rumen methanogens. The note with it: cited from earlier work. This is another data set of the same source.
Data set [9] concerns rumen methanogens. The note with it: goats, 10 g/day/goat; cited from earlier work.
The subject of data set [10] is Methanobrevibacter ruminantium. Description: Methane production of methanogen monocultures treated with sera from vaccinated animals. The format is cell-based. The settings on record: small molecule inhibitor at 3 different concentrations, FIG. 17B. The protocol: Briefly, BY medium is inoculated with a methanogen-of-interest and combined with serum. The culture tube is crimped closed and pressurized with 80% hydrogen, 20% carbon dioxide. The cultures are incubated and methane in measured intermittently using a GazoMat handheld methane monitoring device. Methane is plotted as a function of time for the various treatment groups and the control group.
200 uL of serum from vaccinated animals were added to sterile anaerobic culture tubes. Open plasma containing tubes were placed into an anaerobic chamber containing 95% nitrogen and 5% hydrogen and allowed to stand 1 hr at ambient temperature. A single seeded culture of methanogen (M. gottschalkii or M. ruminantium) was prepared in BY medium at a volume sufficient to distribute 2.5 mL to each plasma sample and control tube. 2.5 mL of methanogen culture was added to each tube containing the serum, a septa was inserted and crimped into place. Sealed tubes were removed from the anaerobic chamber and each was pressurized with 25 PSI 80% H2, 20% CO2 gas via a hypodermic needle through the septum. Tubes were placed into a 38° C. shaking incubator and periodically removed for methane measurements. Methane measurements in the tube headspace were made with a handheld remote methane detector using a jig to hold the instrument and tube during measurement.

Another data set concerns rumen Methanobrevibacter. The settings on record: 5.6 μmol/L, in vitro; rumen bacteria not inhibited; cited from earlier work.
Where [11] appears, read: 3-NOP:Adsorbent 1:1.5, distilled water at 1% 3-NOP loading.
[12] abbreviates: 3-NOP:Adsorbent 1:2, distilled water at 1% 3-NOP loading.
The mark [13] stands for this setting: 3-NOP:Adsorbent 1:2.5, distilled water at 1% 3-NOP loading.
The mark [14] stands for this setting: 0.06 to 0.24 mmol/L, dose-dependent.

As for 3-bromopropanesulfonate [BPS], the “concentration up to which the species appeared resistant” value with Methanomicrobium mobile (pure cultures), with Methanosarcina mazei (pure cultures) and in the data set with Mbb. Ruminantium (pure cultures) was 250 µmol/L in each case.
As to `O=[N+]([O-])OCCCO` [3-NOP, 3-nitrooxypropanol], the “Addition amount; maximum methane suppression amount” value in data set [1] (0.08 mg/g dry matter (Alvarez-Hess et al., 2019)) is 0.08 mg/g dry matter; 44%; in [1] (60 mg/kg of feed dry matter (Melgar et al., 2020)), 26%/day (Melgar et al., 2020); in data set [1] (1.6 g, concentrate pellet (Van Wesemael et al., 2019)), 23%; in data set [1] (1.6 g, roughage (Van Wesemael et al., 2019)) it was 28%. In addition, the “Average Integrated Area of 3-NOP in solution” value in data set [2] (setting [11]), in [2] (setting [12]) and in data set [2] (setting [13]) was 2566.4 throughout. Besides, the “decrease of CH4 production” value in the data set with rumen methanogens [3] (0.5 g/day) is reported as 29%; in the data set with rumen methanogens [6] (dairy cows, 40-80 mg/kg feed DM, persistently for up to 84 days) it was “about 30%”. The compound further came in with an Average mass loss in data set [4] of around 0.25 % per day. Further, the “pH and Temperature Stability” value in data set [5] is listed as “Confirmed”. For the same compound, in the data set with rumen methanogens [6] (beef cattle, 2.0 g/day/cow), the “decrease of CH4 yield” value is 59%. The “persistence of the inhibition” value in the data set with rumen methanogens [6] (beef cattle, 2.0 g/day/cow) is recorded as “up to 112 days”. The “degree of CH4 suppression” value in the data set with rumen methanogens [6] (directly added to the rumen through rumen cannula, daily dose 0.50 or 2.5 g per cow) is 7-10%.
With `O=S(=O)([O-])CCBr.[Na+]` [BES, 2-bromoethanesulfonate], the figures for the “sensitivity to the inhibitor, ranking of three species” value (from here on “sensitivity to the inhibitor, ranking”) with Methanomicrobium mobile (pure cultures), with Methanosarcina mazei (pure cultures) and in the data set on Mbb. Ruminantium (pure cultures) were “intermediate”, “least sensitive” and “most sensitive”, respectively.
As to `NCCCC[C@H](N)C(=O)O` [Lysine], the “Average Integrated Area of 3-NOP in solution” value in [2] (setting [11]) came to 2336.2; in data set [2] (setting [12]), 2308.9; in data set [2] (setting [13]), 2266.6. Also, the 3-NOP concentration in data set [7] amounted to 18.583 mM.
Regarding `CC#CC(=O)OCC` [ethyl 2-butynoate], the “sensitivity to the inhibitor, ranking” value in the data set with Methanomicrobium mobile (pure cultures) is “intermediate”; in the data set on Methanosarcina mazei (pure cultures), “least sensitive”; with Mbb. Ruminantium (pure cultures) it was “most sensitive”.
As to `O=C(O)/C=C/C(=O)O` [fumarate], the “decrease of CH4 production” value in the data set with rumen methanogens [8] (3.5 g/L, continuous fermenters with forages as a substrate) is 38%. The “decrease of abundance of methanogens and CH4 production” value in the data set on rumen methanogens [9] is 11.9%.
For `CCCCCCCCCCCC(=O)O` [lauric acid], in data set [10], the methane production rate entry was “reduction is methane production rate”.
Take `O=c1[nH]c(=O)c2nccnc2[nH]1` [lumazin, 2,4-pteridinedione]: the CH4 production entry in the data set with Methanomicrobium mobile (setting [14]), in the data set with Methanosarcina mazei (setting [14]) and in the data set on Mbb. Ruminantium (setting [14]) was “significantly decreased” throughout.
`CC[C@H](C)C(=O)O[C@H]1CCC=C2C=C[C@H](C)[C@H](CC[C@@H]3C[C@@H](O)CC(=O)O3)[C@H]21` [mevastatin]: the growth entry in the data set with rumen Methanobrevibacter was “inhibited the growth of all three strains”.
For the compound `CC[N+](=O)[O-]` [nitroethane], in [1] (10 mmol/L), the “Addition amount; maximum methane suppression amount” value is 10 mmol/L; 96.7% (NE),. The “decrease of CH4 production” value in the data set on rumen methanogens [3] (orally 24 mg/kg body weight daily for 5 days) is “up to 45%”; in the data set on rumen methanogens [3] (orally 72 mg/kg body weight daily for 5 days) it was at most 69%.
With `C#CC(=O)O` [propynoic acid], the “sensitivity to the inhibitor, ranking” value with Methanomicrobium mobile (pure cultures) was “intermediate”; with Methanosarcina mazei (pure cultures) it was “least sensitive”; in the data set with Mbb. Ruminantium (pure cultures), “most sensitive”. For the same compound, the “lowering of CH4 production” value in the data set with rumen methanogens [8] (6 mmol/L) was 67%; with rumen methanogens [8] (12 mmol/L), 78%.
